Where two headings read alike, the source gives them in different places.
Legend:
GP IIb/IIIa = GP IIb/IIIa (Homo sapiens, UniProt P05106+P08514); experiment: Differential inhibition of ligand binding to GP IIb/IIIa; settings: fibrinogen vs fibronectin and vitronectin
platelets [1] = assay type: cell-based, human; settings: ADP 10 μM, citrated PRP; unit only in text b178 (printed μm); read-out: ADP-Stimulated Aggregation
Method: Platelet aggregation assays were performed following the methods of this Example or those of Example IX.G. Platelet aggregation was assessed using the method of Born, Nature 194:927-929 (1962), incorporated herein by reference. Briefly, the change in light transmission was measured through a stirred suspension of platelets in an aggregometer (Model 400 VS, Chrono-Log, Havertown, Pa., USA). Studies employing ADP were performed with platelet-rich plasma (PRP), which was obtained by low-speed centrifugation (200×g for 10 min.) of whole blood freshly drawn into trisodium citrate (at a final concentration of 11 mm). In studies using thrombin, the PRP was gel-filtered on Sepharose 2B in divalent ion-free Tyroda's solution containing 2% BSA. For all studies, the reference standard was platelet-poor plasma, which was obtained by centrifuging PRP at 1000×g for 5 min.
All aggregation studies were performed at 37° C. with a constantly stirred suspension of 3×10^8 platelets/ml. (Platelet count was determined with the aid of a hemacytometer.) Peptides and stimulants were added to these suspensions in 1% dilutions. […]

platelets [2] = experiment: Thrombin-stimulated platelet aggregation (Table I); assay type: cell-based, human; settings: thrombin 2 U/ml, gel-filtered platelets; unit only in text b178 (printed μm)
Method: (§1) Platelet aggregation assays were performed following the methods of this Example or those of Example IX.G. Platelet aggregation was assessed using the method of Born, Nature 194:927-929 (1962), incorporated herein by reference. Briefly, the change in light transmission was measured through a stirred suspension of platelets in an aggregometer (Model 400 VS, Chrono-Log, Havertown, Pa., USA). […] In studies using thrombin, the PRP was gel-filtered on Sepharose 2B in divalent ion-free Tyroda's solution containing 2% BSA. For all studies, the reference standard was platelet-poor plasma, which was obtained by centrifuging PRP at 1000×g for 5 min.
(§2) All aggregation studies were performed at 37° C. with a constantly stirred suspension of 3×10^8 platelets/ml. (Platelet count was determined with the aid of a hemacytometer.) Peptides and stimulants were added to these suspensions in 1% dilutions. The PRP and gel-filtered platelets were used within three hours from the time of blood collection.
Peptide anti-aggregation potencies were determined from dose-responsive curves for the inhibition of the maximum aggregation responses stimulated by physiologic doses of ADP (10 μm) and thrombin (2 U/ml).

platelets [3] = experiment: Ex vivo inhibition of platelet aggregation (Table IV); assay type: in vivo; settings: dose per code
Method: Using the method described in Example V to measure ex vivo inhibition of platelet aggregation and the method described in Example VII to measure bleeding, four additional peptides were tested. These peptides included 11J, 11Q, 11K and 11V.

platelets [4] = experiment: Ex vivo platelet aggregation in canine coronary thrombosis model; set-up: species or system dog
Method: For all ex vivo studies (see FIG. 3), control aggregation values were standardized to the percentages of light transmission observed in PRP and PPP samples (0% and 100%, respectively).
(§3) Animals were randomly assigned to two treatment groups: vehicle control (i.e., normal saline) or RGD peptides at various concentrations. Peptides were administered intra-atrially in both bolus and continuous injections. Each bolus injection consisted of 0.5 to 10 mg/kg and was administered 15 minutes before application of the current. A continuous infusion of the same peptide was then started immediately after completion of this initial injection. Animals received a 25 μg/kg/min to 200 μg/kg/min infusion. The anti-thrombotic effects of the peptides were monitored until 30 minutes after the occurrence of a persistent, occlusive thrombus or five hours after the initiation of electrical stimulation (whichever resulted first). If an occlusive thrombus had not developed within four hours after the initiation of current, the peptide infusion was stopped.
Platelet counts and ex vivo aggregation studies were performed one hour before and 1, 3, and 5 hours after application of anodal direct current.
Platelet aggregation was also determined ex vivo at one, three, and five hours after current application. For these studies, arachidonic acid, or collagen was again used to stimulate the platelets.

coronary thrombosis = experiment: Electrically induced canine coronary thrombosis, time to full occlusion; assay type: in vivo, dog
Method: Male mongrel dogs weighing 14 to 20 kg were selected based on proper aggregation of their platelets in response to arachidonic acid, collagen, and adenosine disphosphate (ADP) and based on similar weights and hemodynamic properties.
Before surgery, the animals were anesthetized with sodium pentobarbital (30 mg/kg, i.v.) and then intubated and ventilated on room air with positive pressure using a respirator (Harvard Apparatus, S. Natick, Mass.) at a volume of 30 ml/kg and a frequency of 12 breaths/min. Surgery, performed under aseptic conditions, was begun with the placement of cannulae into the left carotid artery and jugular vein for monitoring arterial blood pressure (Statham P23 pressure transducer, Gould, Inc., Cardiovascular Products, Oxnard, Calif.) and administering intravenous fluids.
The heart was exposed via a left thoracotomy through the 5th intercostal space. A 2-cm segment of the left circumflex coronary artery (LCCA) was isolated from surrounding tissue by blunt dissection. […] The intra-coronary electrode was constructed by attaching a 25-gauge hypodermic needle tip to a 30-gauge Teflon-insulated silver-coated copper wire. The mechanical occluder was constructed of stainless steel in a C shape with a Teflon screw (2 mm diameter) on top. It was adjusted to control vessel circumference and decrease the reactive hyperemic flow due to a 10-sec (full) occlusion by 50-70% without affecting basal coronary blood flow (FIG. 1). A monopolar epicardial electrode was sutured to the surface of the ventricle in the region of LCCA distribution to monitor ischemic changes in the electrocardiogram (ECG). The left atrium was cannulated with polythylene tubing for administration of the peptide. Continuous recordings of blood pressure, limb lead II ECG, epicardial electrogram, and mean and phasic LCCA blood flow were obtained on a Model 7 polygraph (Grass Instrument Co., Quincy, Mass.).
One hour after the completion of surgery, a 100 micro-amp continuous anodal direct current delivered from a 9 volt nickel-cadmium battery was applied to the intimal surface of the LCCA. The anode of the battery was in series with a 250,000 ohm potentiometer and the intraluminal coronary artery electrode. The electric circuit was completed by placing the cathode in a subcutaneous site. Electrical stimulation was applied for three hours. At the conclusion of each experiment, the heart was fibrillated electrically and quickly removed, and the LCCA was dissected free as far as possible to verify he position of the implanted anodal electrode.
as §3
Coronary thrombosis was quantified as the time to full occlusion. The effects of the various peptide treatments on coronary thrombosis is illustrated in FIG. 4.

[5] = Peripheral blood flow (PBF) by laser doppler probe, rabbit ear; assay type: in vivo; settings: time 10 min; bolus dose per drug
Method: In an alternative series of experiments, (Table 2) PBF was measured quantitatively with a laser dopler flow probe (Perimed). The probe was positioned securely over the vascular bed of one ear and flow monitored continuously. Each inhibitor was infused and CBT measured in the opposing ear. No arterial catheter was placed for blood sampling, consequently XPA […] in these animals.
As positive control, epinephrine was infused intravenously (1 mg over 2 minutes) at 60 minutes. The resulting vasoconstriction reduced flow to near 0 flow units within 5 minutes.

platelets [6] = experiment: Platelet aggregation of small cyclic disulfide and lactam peptides; assay type: cell-based; settings: for potency against platelet aggregation relative to 8×: comparator 8×
Method: as §1, with “Platelet” for “Platelet aggregation assays were performed following the methods of this Example or those of Example IX.G. Platelet”, “Tyrode's” for “Tyroda's”
as §2, with “platelets/mL.” for “platelets/ml.”

[7] = system: Gore-tex vascular graft thrombosis; experiment: Platelet and fibrinogen uptake by Gore-Tex grafts, baboon ex vivo shunt; assay type: in vivo
Method: Adult male baboons (weighing 16 to 25 kg) were used in these studies. These were sedated with ketamine hydrochloride (200 to 250 mg intramuscular injection) and maintained under anesthesia with sodium pentobarbital (50 to 75 mg administered intravenously as necessary).
Twenty-four hours before the ex vivo shunt was established, platelets were isolated from 500 ml of blood from the test animal and labelled with ca. of 500 microcuries of indium-111 oxine (Medi+Physics, Emeryville, Calif.), which irreversibly and specifically binds to platelets with an efficiency of 50%. Immediately after labelling, these platelets were then injected back into the animal and allowed to circulate for 24 hours. Immediately before the start of the study, fibrinogen that had been isolated from the animal and labelled with iodine-131 (DuPont Nuclear, Boston, Mass.) was also injected back into the animal. Also at this time, baseline determinations of the clotting and template bleeding times were made, and blood samples were drawn for hematology studies.
To establish the ex vivo shunt, the femoral artery and vein were percutaneously cannulated with introducer catheters (KMA Inc., Mansfield, Mass.). The catheters were then connected to medical-grade, heparin-coatedsilastic tubing (2.59 mm internal diameter, (Extracorporeal Medical Specialties, Inc., King of Prussia, Pa.). […] Finally, a 5 cm-long test segment of a 4 mm (internal diameter) vascular graft was inserted at the apex of the circuit. The graft used in these studies was Gore-tex (expanded polytetrafluoroethylene, (W. L. Gore and Associates, Inc., Flagstaff, Ariz.). An electromagnetic flow probe was then inserted into the tubing circuit to measure blood flow, which was maintained at 100 ml/min. by varying the resistance imported by a partially occluding screw clamp that was distal to the probe. Finally, a 5 cm-long test segment of a 4 mm (internal diameter) vascular graft was inserted at the apex of the circuit. The graft used in these studies was Gore-tex (expanded polytetrafluoroethylene, W. L. Gore and Associates, Inc., Flagstaff, Ariz.).
Platelet deposition onto the grafts was monitored by dynamic scanning with a gamma camera (Sigma 400, Ohio Nuclear, Inc., Sohon, Ohio), which detects the gamma radiation emitted by the ^111 indium-labelled platelets. Once the circuit was in place, the animal was placed under this camera, and blood flow was initiated. Scans were then taken at the rate of one frame per two minutes for two hours. The data from these scans were collected on a dedicated Digital MDA computer (Maynard, Mass.). […]

platelets [8] = experiment: Ex vivo platelet aggregation in baboon PRP; settings: animal 2; PRP at 0, 1, 2 h
Method: At one- and two-hour time points, template bleeding times were measured, and blood samples were drawn to assess the hematology aggregation studies. Platelet aggregation studies were performed as described in Example V using ADP as the stimulus.
In addition, platelet aggregation studies were conducted on PRP derived from the second animal. Whole blood was drawn at three time points (0, 1 and 2 hours) of both control and experimental shunts.

[9] = animal 1, two bolus IV injections of 10 mg/kg
[10] = animal 2, 10 mg/kg bolus IV plus 10 mg/kg/hr infusion for 2 h

GP IIb/IIIa, sequence (P08514 32-887 limits assumed): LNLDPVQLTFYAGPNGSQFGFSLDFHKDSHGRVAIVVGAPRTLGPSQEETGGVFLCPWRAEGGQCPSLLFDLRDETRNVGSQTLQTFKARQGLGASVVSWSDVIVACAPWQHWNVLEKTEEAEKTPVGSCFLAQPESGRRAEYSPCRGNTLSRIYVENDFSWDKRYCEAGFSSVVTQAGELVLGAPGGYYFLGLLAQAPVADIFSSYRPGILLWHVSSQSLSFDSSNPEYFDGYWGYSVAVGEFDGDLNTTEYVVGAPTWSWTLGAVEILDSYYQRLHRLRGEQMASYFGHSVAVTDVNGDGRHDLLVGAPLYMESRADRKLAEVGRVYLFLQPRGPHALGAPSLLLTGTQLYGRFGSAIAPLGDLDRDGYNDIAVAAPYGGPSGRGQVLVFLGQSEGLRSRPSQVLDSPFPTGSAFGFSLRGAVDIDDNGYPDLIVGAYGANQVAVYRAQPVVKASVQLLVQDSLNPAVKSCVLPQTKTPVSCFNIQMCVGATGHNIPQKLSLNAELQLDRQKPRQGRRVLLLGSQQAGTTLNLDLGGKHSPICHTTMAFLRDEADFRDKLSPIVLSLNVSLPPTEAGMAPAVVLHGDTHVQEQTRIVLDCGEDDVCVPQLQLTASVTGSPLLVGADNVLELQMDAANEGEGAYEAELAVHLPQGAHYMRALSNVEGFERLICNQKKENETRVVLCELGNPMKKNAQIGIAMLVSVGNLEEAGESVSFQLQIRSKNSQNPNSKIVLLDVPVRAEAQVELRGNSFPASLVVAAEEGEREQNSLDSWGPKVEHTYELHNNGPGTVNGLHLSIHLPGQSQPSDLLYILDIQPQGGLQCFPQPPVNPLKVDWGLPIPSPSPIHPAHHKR
GP IIb/IIIa, sequence (P08514 891-1039 partner limits assumed): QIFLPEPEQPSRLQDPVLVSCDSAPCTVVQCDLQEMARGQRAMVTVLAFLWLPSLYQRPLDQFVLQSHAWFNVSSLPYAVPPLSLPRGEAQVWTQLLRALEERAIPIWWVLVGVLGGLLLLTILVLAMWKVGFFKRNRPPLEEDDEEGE
GP IIb/IIIa, sequence (P05106 27-788): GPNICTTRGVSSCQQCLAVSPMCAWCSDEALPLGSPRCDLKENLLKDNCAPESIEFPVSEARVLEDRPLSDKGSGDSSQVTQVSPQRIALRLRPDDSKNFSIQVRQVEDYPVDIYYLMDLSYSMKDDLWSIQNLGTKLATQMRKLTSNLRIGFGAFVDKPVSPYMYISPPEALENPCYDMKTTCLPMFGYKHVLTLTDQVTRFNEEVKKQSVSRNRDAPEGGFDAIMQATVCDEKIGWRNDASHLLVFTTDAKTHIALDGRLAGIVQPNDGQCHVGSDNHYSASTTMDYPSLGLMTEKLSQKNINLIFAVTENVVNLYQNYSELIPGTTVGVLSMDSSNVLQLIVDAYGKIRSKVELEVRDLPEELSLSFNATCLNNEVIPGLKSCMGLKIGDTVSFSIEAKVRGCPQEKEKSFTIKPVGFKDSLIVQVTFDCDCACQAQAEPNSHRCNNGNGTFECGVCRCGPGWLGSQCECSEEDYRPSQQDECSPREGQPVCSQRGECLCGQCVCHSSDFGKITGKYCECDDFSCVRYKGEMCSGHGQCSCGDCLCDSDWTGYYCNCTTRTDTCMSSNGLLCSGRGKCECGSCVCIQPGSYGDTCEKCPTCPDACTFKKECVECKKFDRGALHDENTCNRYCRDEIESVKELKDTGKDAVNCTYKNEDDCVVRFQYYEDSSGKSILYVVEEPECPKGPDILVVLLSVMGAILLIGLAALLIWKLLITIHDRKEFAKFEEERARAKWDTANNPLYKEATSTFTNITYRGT

Ac-CNPRGD(Y-OMe)RCNH2 [8x]
differential inhibition of binding of ligands to GP IIb/IIIa (GP IIb/IIIa): inhibits the binding of fibrinogen to GP IIb/IIIa more than it inhibits the binding of fibronectin and vitronectin to the same integrin

G(dPen)GHRGDLRCA
IC50 (platelets [1]): 5.28 ± 0.7 µM

R2 (Pen)GHGDTPCA
IC50 (platelets [2]): 2.7 µM
IC50 (platelets [1]): 8.2 µM

Ac-CNPRGD(Y-OMe)AC-NH2 [11K]
ex vivo inhibition of platelet aggregation (%) (platelets [3]): > 98%

Ac-CNPRGD(Y-OMe)(Nle)C-NH2 [11V]
ex vivo inhibition of platelet aggregation (%) (platelets [3]): > 98%

R(Pen)GRGDWPCR [4R]
ex vivo platelet response, all modes of stimulation (platelets [4]; 10 mg/kg, all time points): unresponsive to all modes of stimulation at all time points
time to full occlusion (coronary thrombosis) (coronary thrombosis; 3 mg/kg): ineffective
time to full occlusion (coronary thrombosis) (coronary thrombosis; 10 mg/kg bolus plus infusion): prevented occlusion throughout the duration of the study

Ac-CNPRGD(Y-OMe)EC-NH2 [11J]
ex vivo inhibition of platelet aggregation (%) (platelets [3]): > 98%

R(Pen)GHRGDWRCR [4Q]
ex vivo platelet activation by collagen (platelets [4]; 5 mg/kg): near-maximal inhibition
ex vivo platelet response to ADP and AA (platelets [4]; 5 mg/kg, all three time points): completely unresponsive
ex vivo platelet responsiveness (platelets [4]; 10 mg/kg, five-hour point): platelet responsiveness was slightly improved
ex vivo platelet aggregation, all three stimuli (platelets [4]; 10 mg/kg, one- and three-hour time points): prevented platelet aggregation
time to full occlusion (coronary thrombosis) (coronary thrombosis; 5 mg/kg): significantly prolonged the time to occlusion
thrombus formation (coronary thrombosis; 5 mg/kg, circulating platelet levels one-third of normal): able to prevent thrombus formation
time to full occlusion (coronary thrombosis) (coronary thrombosis; 10 mg/kg bolus plus infusion): completely prevented occlusion
PBF (units) [5]: 9 units

Ac-CNPKGD(Y-OMe)RC-NH2 [11Q]
ex vivo inhibition of platelet aggregation (%) (platelets [3]): > 95%

(Myr)RGD(O-Me-Y)RC-NH2 [16A]
potency against platelet aggregation relative to 8× (platelets [6]): about two-fold more reactivity than 8×
IC50 (platelets [6]; read-out: inhibited platelet aggregation with an IC50): 0.12 µM

RGD(O-Me-Y)RE-NH2 [21I]
potency against platelet aggregation relative to 8× (platelets [6]): about three-fold more reactive than 8×

G(Pen)GHRGDLRCA [2G]
ex vivo ADP-stimulated aggregation (platelets [4]; 10 mg/kg, 1, 3, 5 h): substantially inhibited
time to full occlusion (coronary thrombosis) (coronary thrombosis; 10 mg/kg bolus plus infusion): did not significantly influence this frequency
reduction in 111In-platelet uptake by graft [7, 9]: 90%
reduction in 131I-fibrinogen uptake by graft [7, 9]: 79%
reduction in labelled fibrinogen uptake by graft [7, 10]: 78%
reduction in labelled platelet uptake by graft [7, 10]: 84%
ex vivo platelet response to ADP (10 μM) (platelets [8]): completely unresponsive
